In patent US20100016256A1, “Taxane Compounds for Treating Eye Disease” (priority 2008, published 2010):
Where two headings read alike, the source gives them in different places.

How the values were obtained:
[1] = system: bFGF-stimulated formation of new blood vessel in the Matrigel plug; assay: Matrigel plug perfusion in vivo assay; details: mice, Matrigel and bFGF; for Matrigel Plug/Plasma Fluorescence Ratio: oral gavage
Protocol: A Matrigel® plug perfusion in vivo assay is performed to determine the anti-angiogenic efficiacy of the cobalamin-paclitaxel bioconjugate (Cob-Pac) of Example 1. The assay uses Matrigel®, a gelatinous protein mixture secreted by mouse tumor cells (BD Biosciences, San Jose, Calif.), to duplicate tissue environments. Matrigel® is liquid at […], but when injected into the animal, forms a solid plug. If a growth vessel stimulant such as basic fibroblast growth factor (bFGF) is mixed with the Matrigel®, the bFGF stimulates the formation of new blood vessel in the plug, which can be monitored in the animal via fluorescence techniques. In the current study, Matrigel® is injected either alone or with bFGF subcutaneously into mice.

[2] = paclitaxel conjugated to cobalt atom of cobalamin
[3] = system: choroidal neovascularization by laser burns on the eye; details: rats
Protocol: Groups of 8 rats/dosage group or vehicle are neovascularized by laser burns on the eye. Afterwards, the eye is immediately treated with a cobalamin-paclitaxel bioconjugate prepared in accordance with Example 1 at a dose of 1.5 μg/2 μL, 5.0 μg/2 μL, and 15 μg/2 μL (indicated as B.C. in FIG. 1). The treatment regimen also includes a vehicle and Kenacort Retard® (4% triamcinolone acetonide), as a positive control. Each treatment is scored at 7, 14, and 21 days post-treatment by infusing the eye with fluorescein and scoring the leakage using angiography. A score of 0 indicates no leakage while a score of 3 indicates severe leakage. The results of the test are shown in FIG. 1 as the percentage of […] scoring 3.

white blood cells = details: mice; for White blood cells per 10^4 peripheral blood cells: after 28 days
Protocol: (§1) A group of 6 mice are administered various dosages of the cobalamin-paclitaxel bioconjugate prepared in accordance with Example 1 over a 28-day period. The effects on counts of viable circulating endothelial cell precursors and white blood cells are measured after 28 days.

[4] = system: viable circulating endothelial cell precursors (CEPs); details: mice; for Viable CEPs per microliter of peripheral blood: after 28 days
Protocol: as §1

[5] = system: blood vessel lesions of the eye; details: rats
Text: In another study, flat mount evaluation of the eyes can be carried out at the end of the study because angiography may not provide a full evaluation of the effect of the drug. At the end of the study, the eyes are removed, histologically processed and all lesions can be seen (including those that can not be detected by angiography).
Groups of 8 rats/dosage group are neovascularized by laser burns, followed by immediate treatment of the eye with a cobalamin-paclitaxel bioconjugate prepared in accordance with Example 1. Dosages used are 1.5 μg/2 μL, 5.0 μg/2 μL, and 15 μg/2 μL. The treatments also include a vehicle and Kenacort Retard® (4% triamcinolone acetonide). After 21 days, the eyes are removed, histologically processed, and the lesion size scored in μm^3.

[6] = 1.5 mg/kg paclitaxel delivered as bioconjugate
[7] = 2 mg/kg paclitaxel delivered as bioconjugate
[8] = 3 mg/kg paclitaxel delivered as bioconjugate
[9] = 6 mg/kg paclitaxel delivered as bioconjugate
[10] = 30 mg/kg paclitaxel delivered as bioconjugate

Q: What does the source list for `CC(=O)O[C@H]1C(=O)[C@@]2(C)C([C@H](OC(=O)c3ccccc3)[C@]3(O)C[C@H](OC(=O)[C@H](OC(=O)C[NH+](C)CC[CH2][Co+][N]4/C5=C(/C)C6=N/C(=C\C7=NC(=C(/C)C8=NC(C(C)C4C(CC(N)=O)C5(C)CCC(=O)NCC(C)OP(=O)([O-])OC4C(CO)OC(n5cnc9cc(C)c(C)cc95)C4O)C(C)(CC(N)=O)C8CCC(N)=O)/C(C)(CC(N)=O)C7CCC(N)=O)C(C)(C)C6CCC(N)=O)[C@@H](NC(=O)c4ccccc4)c4ccccc4)C(C)=C1C3(C)C)[C@]1(OC(C)=O)COC1C[C@@H]2O.[Cl-]` (stereo partly drawn) [cobalamin-paclitaxel bioconjugate, Cbl-(CH2)3N(CH3)CH2COO-2′-P7X]?
A: Effect on growth of new blood vessels in Matrigel plug ([1]; each dose (2, 6, 30 mg/kg), greatest effect at 2 and 6 mg/kg): inhibits the growth of new blood vessels; Matrigel Plug/Plasma Fluorescence Ratio ([1]; 2 mg/kg expressed in paclitaxel units): 0.0007; Matrigel Plug/Plasma Fluorescence Ratio ([1]; 6 mg/kg expressed in paclitaxel units): 0.0005; Matrigel Plug/Plasma Fluorescence Ratio ([1]; 30 mg/kg expressed in paclitaxel units): 0.0011; water solubility [2]: over 100 mg/ml; Anti-angiogenic effect by fluorescein leakage score (FIG. 1) ([3]; after 7 days, intermediate and high doses (5.0 and 15 μg/2 μL)): anti-angiogenic results; Anti-angiogenic effect by fluorescein leakage score (FIG. 1) ([3]; after 14 days, high dose (15 μg/2 μL)): anti-angiogenic benefit; White blood cells per 10^4 peripheral blood cells (white blood cells; [6]): 6700 per 10^4 peripheral blood cells; White blood cells per 10^4 peripheral blood cells (white blood cells; [7]): 6700 per 10^4 peripheral blood cells; White blood cells per 10^4 peripheral blood cells (white blood cells; [8]): 7000 per 10^4 peripheral blood cells; White blood cells per 10^4 peripheral blood cells (white blood cells; [9]): 6700 per 10^4 peripheral blood cells; White blood cells per 10^4 peripheral blood cells (white blood cells; [10]): 8100 per 10^4 peripheral blood cells; Toxicity by white blood cell count (neutropenia) (white blood cells; 28 days, absence of a decrease in white blood cell count): no neutropenia; Viable CEPs per microliter of peripheral blood [4, 6]: 0.4 per microliter of peripheral blood; Viable CEPs per microliter of peripheral blood [4, 7]: 0.25 per microliter of peripheral blood; Viable CEPs per microliter of peripheral blood [4, 8]: 0.4 per microliter of peripheral blood; Viable CEPs per microliter of peripheral blood [4, 9]: 0.9 per microliter of peripheral blood; Viable CEPs per microliter of peripheral blood [4, 10]: 1.2 per microliter of peripheral blood; Most effective dose (decrease in viable CEPs) ([4]; 28-day dose study, dose as paclitaxel): about 2 mg/kg; Number of blood vessel lesions (FIG. 2) ([5]; 21 days, 1.5, 5.0 and 15 μg/2 μL): decrease in a concentration dependent manner; Inhibition of new blood vessel growth (lesion study) ([5]; 21 days, high and medium concentrations (15 and 5.0 μg/2 μL)): efficacious in inhibiting new blood vessel growth
